Assay results as given in patent US6274622A, “Method of treating diabetic ophthalmopathy” (priority 1999, dated 2001).

Assays:
[1] = accepted value; cited from earlier work
[2] = system: humans; assay: administration to humans, tolerability; parameters: species or system human; details: in vivo
[3] = in vivo; details: dog, iv
[4] = in vivo; details: mouse, iv
[5] = system: diabetic retinopathy; details: humans, mainly in the 1980s; cited from earlier work

For `[Cl-].[Na+]` [common table salt], the “oral LD50” value [1] is given as 3750 mg/kg.
For `O=S(=O)([O-])CCSSCCS(=O)(=O)[O-].[Na+].[Na+]`, the “dose administered with no adverse effects” value [2] was “exceeding 15 g/m^2”, the NOAEL [3] was over 3750 mg/kg and the NOAEL [4] was over 3750 mg/kg.
For `O=C1NC(=O)[C@@]2(CCOc3ccc(F)cc32)N1` [sorbinil], the “efficacy in slowing progress of diabetic retinopathy and other diabetic complications” value [5] is given as “some efficacy” and the “toxicity / tolerability in patients” value [5] is given as “highly toxic”.
